How the values were obtained:
[1] = AGEs crosslinking cutting test; format: biochemical; conditions: PTB 5 mmol/L
Procedure: Next, according to the AGEs crosslinking cutting test, the AGEs decomposition activity of the bagasse decomposition extract (the extract A) was evaluated. […] PPD) having an α-diketone structure was used as a model substrate, which is a known method (for example, Glycative Stress Research 2015, Vol. 2 (No. 2), pp. 58-66). The extract A as a bagasse decomposition extract was dissolved in distill water to a concentration of 20 mg/mL to prepare a test sample. The above prepared sample was added to a reaction solution containing a 0.16 mol/L phosphate buffer solution (pH 7.4), and a […] PPD composition to a concentration of 1/2 (10 mg/mL) and incubated at 37° C. for 8 hours. […] The amount of benzoic acid in the supernatant was analyzed through reversed phase HPLC. The amount of benzoic acid in the reaction solution was determined by subtracting the amount of benzoic acid in the sample that was separately measured. Since 1 mol of PPD produced 1 mol of benzoic acid, the crosslinking cutting rate was calculated according to the following formula. […] Then, the reaction solution was centrifuged at 20° C. and 3,000×g, for 10 minutes, and the amount of benzoic acid in the supernatant was analyzed through reversed phase HPLC. The amount of benzoic acid in the reaction solution was determined by subtracting the amount of benzoic acid in the sample that was separately measured. […]

3T3-L1 cells = assay: 3T3-L1 cell lipid accumulation inhibition test; format: cell-based, mouse; conditions: berberine chloride final concentration 1 μg/mL; untreated control = 100%
Procedure: The extract A was dissolved in water to prepare 50 mg/mL of a test solution stock solution. The test solution stock solution was diluted with a DMEM culture medium to prepare a test solution with a specimen concentration of 2,000 μg/mL.
3T3-L1 cells (National Institute of Biomedical Innovation, Health and Nutrition) as mouse adipose progenitor cells were seeded on a 24-well plate, and cultured in a DMEM culture medium containing a newborn calf serum (10 vol %, with respect to a total amount of the culture medium) and a penicillin-streptomycin solution (1 vol %, with respect to a total amount of the culture medium) for 4 days. […]
After the lipid droplets were observed, a pigment extract solution contained in the Adipogenesis Assay Kit was added to samples of Example a1, Comparative Example a1-1, and Positive Control a1-1, and Oil Red O incorporated into the lipid droplets was extracted. The absorbance of the extracted Oil Red O at 520 nm was measured using a microplate reader (SpectraMax M2e, commercially available from Molecular Devices, LLC.).
The lipid accumulation rate was calculated from the absorbance of respective samples according to the following formula. […]

C2C12 cells [2] = assay: Mitochondrial activation test (amount of mitochondria per cell); format: cell-based, mouse; conditions: Table 24; positive control; 48 hours; Comparative Example i1-4 = 100%
Procedure: (Cells) • Mouse Myoblasts C2C12 Cells (ATCC, CRL-1772) (Culture Mediums) • Growth culture medium composition: DMEM culture medium, 10% FBS, antibiotics added • Differentiation culture medium composition: DMEM culture medium, 0.5% FBS, antibiotics added C2C12 cells were cultivated using a growth culture medium in a T-75 flask (75 cm^2 U-shaped canted neck cell culture flask, commercially available from Corning Co., Ltd.). The T-75 flask was put into a CO2 incubator (5% CO2, 37° C., wet) and the C2C12 cells were cultured. The culture medium was replaced every other day, and when an 80% confluence was reached, the cells were collected and used for the test. Here, in the following test, regarding a well plate for culturing C2C12 cells, a plate coated with gelatin according to the following coating method was used. […] Then, after the culture supernatant was removed, a differentiation culture medium containing 5 μg/mL Hoechst (reagent for nuclear staining) and 500 nM MitoTracker (mitochondria staining reagent) was added to the well plate, and the fluorescence intensity was measured by the same method as in Test Example i1-1. The amount of mitochondria per cell was calculated by dividing the fluorescence intensity of the differentiation culture medium containing MitoTracker by the fluorescence intensity of the differentiation culture medium containing Hoechst. […]

C2C12 cells [3] = assay: Mitochondrial activation test (activity per cell); format: cell-based, mouse; conditions: resveratrol 50 μM, 1% (v/v) ethanol; 48 hours; Comparative Example i1-2 = 100%
Procedure: (Cells) • Mouse Myoblasts C2C12 Cells (ATCC, CRL-1772) (Culture Mediums) • Growth culture medium composition: DMEM culture medium, 10% FBS, antibiotics added • Differentiation culture medium composition: DMEM culture medium, 0.5% FBS, antibiotics added C2C12 cells were cultivated using a growth culture medium in a T-75 flask (75 cm^2 U-shaped canted neck cell culture flask, commercially available from Corning Co., Ltd.). The T-75 flask was put into a CO2 incubator (5% CO2, 37° C., wet) and the C2C12 cells were cultured. The culture medium was replaced every other day, and when an 80% confluence was reached, the cells were collected and used for the test. […] Pre-cultured cells were seeded in a 96-well plate for fluorescence observation (optical bottom plate, commercially available from Nunc) at 4×10^4 cells/0.1 mL/well using a growth culture medium. […] Then, the fluorescence intensity was measured with a fluorescent plate reader. The mitochondrial activity per cell was calculated by dividing the fluorescence intensity of the differentiation culture medium containing rhodamine by the fluorescence intensity of the differentiation culture medium containing Hoechst. […] In addition, the relative values (%) in the test samples of Examples i1-4 to i1-6 and Positive Control it when the mitochondrial activity in the test sample of Comparative Example i1-2 was set as 100% were determined.

[4] = test system: human osteoclast precursor cells; assay: Osteoclast differentiation inhibition test 2 (proportion of mononuclear cells); format: cell-based; conditions: 7 days
Procedure: It is known that, when osteoclasts mature, cells fuse each other and become multinucleated. Therefore, the proportion of mononuclear cells of osteoclasts was measured, and an osteoclast differentiation inhibition effect was confirmed. Under the same culture conditions as in Example j2-1, human osteoclast precursor cells were cultured using a culture medium containing the extract A with a concentration shown in Table 27 (Example j3-1), a culture medium containing no extract (Comparative Example j3-1), or a culture medium containing melatonin with a concentration shown in Table 27 (Positive Controls j3-1 to j3-2) as positive controls. The proportion of mononuclear cells (%) was calculated by dividing the number of mononuclear cells in the field of view of the microscope by the total number of cells in the field of view.

[5] = test system: human osteoclast precursor cells; assay: Osteoclast differentiation inhibition test 1 (TRAP staining); format: cell-based; conditions: 1,000 μM melatonin; 7 days; FIG. 11
Procedure: (Cells) • Human osteoclast precursor cells (commercially available from Cosmo Bio Co., Ltd. PT-267 Lot. RBW-F-OSH-HBV) Using the above culture medium, 250 μg/mL of a solution containing the extract A was prepared, and this was used as a test solution (Example j2-1). Human osteoclast precursor cells were seeded in a 96-well culture plate at about 0.3×10^5 cells/50 μl/well. A test solution was added thereto at 50 μL/well and culturing was performed under conditions of 37° C. and 5% CO2 for 7 days. The cultured cells were stained with TRAP using a TRAP staining kit, and observed under a microscope. In the same manner, the same test was performed on a culture medium to which no test solution was added (Comparative Example j2-1) and a culture medium containing 1,000 μM melatonin (Positive Control j2) as a positive control.

O=C(C[n+]1ccsc1)c1ccccc1.[Br-] [PTB, N-phenacylthiazoliumbromide]
Crosslinking cutting rate ([1]; Test Example e2): 20.1% | Crosslinking cutting rate ([1]; Test Example e4): 22.4%

COc1ccc2cc3[n+](cc2c1OC)CCc1cc2c(cc1-3)OCO2 [Positive Control a1-1, berberine chloride]
Lipid accumulation rate (3T3-L1 cells): 19±1.0%

Oc1ccc(C=Cc2cc(O)cc(O)c2)cc1 [Positive Control i1-1, resveratrol]
Amount of mitochondria per cell (relative value, %) (C2C12 cells [2]): 178.4 ± 9.6% | Mitochondrial activity per cell (relative value, %) (C2C12 cells [3]): 178.4 ± 9.6%

COc1ccc2[nH]cc(CCNC(C)=O)c2c1 [Positive Control j3-1, melatonin]
Proportion of mononuclear cells (%) (average N = 3) ([4]; melatonin 500 μM): 88% | Proportion of mononuclear cells (%) (average N = 3) ([4]; melatonin 1,000 μM): 100% | Microscopic observation of TRAP-stained osteoclasts [5]: a decrease in the number of osteoclasts was also observed
